According to PubChem BioAssay (NCI):
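All cell lines were grown in 96-well plates and treated with compound for 48 hours. At the GI50, growth is halved. TGI marks complete inhibition of growth.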

Experiments:
Test in all cases: DTP human tumour cell line panel, 48 h
CCRF-CEM leukemia = system: CCRF-CEM leukemia
MOLT-4 leukemia = system: MOLT-4 leukemia
OVCAR-5 ovarian = system: OVCAR-5 ovarian
SF-268 CNS = system: SF-268 CNS
NCI-H23 lung = system: NCI-H23 lung
NCI-H522 lung = system: NCI-H522 lung
A549 NSCLC = system: A549 NSCLC
DU-145 prostate = system: DU-145 prostate
HCC-2998 colon = system: HCC-2998 colon
RXF 393 renal = system: RXF 393 renal

Row | SMILES | GI50 (CCRF-CEM leukemia) | TGI (CCRF-CEM leukemia) | GI50 (MOLT-4 leukemia) | TGI (MOLT-4 leukemia) | GI50 (OVCAR-5 ovarian) | TGI (OVCAR-5 ovarian) | GI50 (SF-268 CNS) | TGI (SF-268 CNS) | GI50 (NCI-H23 lung) | TGI (NCI-H23 lung) | GI50 (NCI-H522 lung) | TGI (NCI-H522 lung) | GI50 (A549 NSCLC) | TGI (A549 NSCLC) | GI50 (DU-145 prostate) | TGI (DU-145 prostate) | GI50 (HCC-2998 colon) | TGI (HCC-2998 colon) | GI50 (RXF 393 renal) | TGI (RXF 393 renal)
1 | Cc1cc(C)c(C2CNCc3cc4c(cc32)CNCC4c2c(C)cc(C)cc2C)c(C)c1 (stereo not drawn) | 1.86 µg/mL | 5.07 µg/mL | 2.95 µg/mL | 8.55 µg/mL | 8.38 µg/mL | 20.4 µg/mL | 3.17 µg/mL | 9.96 µg/mL | 15.9 µg/mL | 30.4 µg/mL | 3.23 µg/mL | 9.18 µg/mL | 4.53 µg/mL | 15.8 µg/mL | 7.21 µg/mL | 19.8 µg/mL | 1.82 µg/mL | 3.85 µg/mL | 2.2 µg/mL | 4.45 µg/mL
2 | Cn1ccnc1Oc1ccc(Cl)cc1 |  |  |  | 7.01 µM |  | 35.7 µM |  | 99.4 µM |  | 39.5 µM |  | 11.6 µM |  | > 100 µM |  | 30.7 µM |  | 14.9 µM |  | 37.1 µM
3 | COc1ccc2c(c1)C(=O)c1c-2c(OCCN(C)C)nc2ccccc12 | 0.825 µM | 10.4 µM | 0.524 µM | 5.64 µM | 4.53 µM | 18.5 µM | 2.34 µM | 10.7 µM | 3.8 µM | 16.7 µM | 1.87 µM | 4.75 µM | 1.33 µM | 4.54 µM | 2.91 µM | 9 µM | 3.89 µM | 14.5 µM | 3.79 µM | 15.7 µM
4 | CC(CO)(Nc1ccc([N+](=O)[O-])cc1[N+](=O)[O-])C(=O)O (stereo not drawn) |  |  |  |  |  | 89 µM |  | 48.9 µM |  | 62.4 µM |  | 39 µM |  | > 100 µM |  | 48.9 µM |  | 43.6 µM |  | 24.6 µM
5 | Oc1c(-c2cc(C(F)(F)F)[nH]n2)cc(Cl)c(OCc2ccc(Cl)cc2)c1-c1ccc(Cl)c(C(F)(F)F)c1 | 0.192 µM | 4.77 µM | 0.903 µM | 3.2 µM | 2.01 µM | 7.91 µM | 0.18 µM | 4.14 µM | 0.265 µM | 4.06 µM | 0.167 µM | 1.72 µM | 1.24 µM | 6.39 µM | 1.15 µM | 6.39 µM | 0.739 µM | 4.53 µM | 0.226 µM | 1.67 µM
6 | Cc1[nH]nc(-c2ccon2)c1N=O |  |  |  | 6.18 µM |  | 35.1 µM |  | 42.8 µM |  | 45.8 µM |  | 48.5 µM |  | 57.6 µM |  | 41.2 µM |  |  |  | 97.7 µM
7 | CC(C)C[C@H](NC(=O)CCn1ccc2ccccc2c1=O)B(O)O | 2.02 µM | 25.4 µM | 1.28 µM | 5.94 µM | 18.8 µM | > 100 µM | 5.69 µM | 30.4 µM | 25.4 µM | > 100 µM | 2.6 µM | 8.09 µM | 8.41 µM | > 100 µM | 9.13 µM | > 100 µM | 6.08 µM | 21.3 µM |  | 
8 | COc1cc(/C=C/c2ccc3c(Br)cc(Br)c(O)c3n2)ccc1O | 0.359 µM | 3.03 µM | 0.606 µM | 7.04 µM | 1.49 µM | 5.84 µM | 1.31 µM | 14.8 µM | 1.99 µM | 16.4 µM | 2.36 µM | 11 µM | 1.21 µM | 12.9 µM | 2.41 µM | 17.6 µM |  |  | 3.8 µM | 18.3 µM
9 | O=C(CN1N=C(c2ccc(F)cc2)CCC1=O)Nc1nc2ccccc2s1 | 0.249 µM | 0.665 µM | 7.61 µM | 31.5 µM | 3.39 µM | > 92.1 µM | 5.59 µM | > 35.9 µM |  |  | 0.187 µM | 0.371 µM | 13.7 µM | > 100 µM | > 25.6 µM | > 100 µM | > 100 µM | > 100 µM | 5.91 µM | > 55.9 µM
10 | CCC(=O)Nc1ccc(N2C(=O)/C(=C/c3ccc(OC)cc3)N=C2c2ccccc2)cc1 | > 50 µM | > 50 µM | 1.06 µM | > 50 µM | > 50 µM | > 50 µM | 4.88 µM | > 50 µM | 13.3 µM | > 50 µM | 48.5 µM | > 50 µM | 6.27 µM | 27 µM | 10.4 µM | > 50 µM |  |  | 11.3 µM | > 50 µM
11 | COc1ccc(/C=C(\C)[N+](=O)[O-])cc1OC |  |  | 3.86 µM | 9.52 µM | 1.73 µM | 3.31 µM | 2.26 µM | 5.46 µM | 2.6 µM | 7.13 µM | 1.34 µM | 2.94 µM | 5.56 µM | 19.3 µM | 1.79 µM | 3.22 µM | 1.82 µM | 3.29 µM | 1.72 µM | 3.18 µM
12 | Cc1ccc(C2C3Cc4ccccc4C3=NN2c2ccc(S(=O)(=O)/N=c3\scc(-c4ccccc4)n3-c3ccccc3)cc2)cc1 (stereo not drawn) | 17.1 µM | 44 µM | 12.8 µM | 31.1 µM |  |  | 16.7 µM | 42 µM |  |  | 22 µM | 66.8 µM | 19 µM | 60.1 µM | 24.7 µM | 81.9 µM |  |  | 24.8 µM | 64.6 µM
13 | Fc1cccc(F)c1C(Nc1nncs1)Nc1nncs1 |  |  |  |  |  | > 100 µM |  | > 100 µM |  | > 100 µM |  | > 100 µM |  | > 100 µM |  | > 100 µM |  | > 100 µM |  | > 100 µM
14 | CC(=O)O[C@@H]1C[C@@]2(C)[C@@H]3CC=C4[C@@H](C[C@H](O)C(=O)C4(C)C)[C@]3(C)C(=O)C[C@]2(C)[C@H]1[C@@](C)(O)C(=O)/C=C/C(C)(C)OC(C)=O |  | > 69.2 µM |  | > 31.6 µM |  | > 86 µM |  | > 41.9 µM |  | 24.1 µM |  | 4.55 µM |  | > 48.2 µM |  | 34.1 µM |  | 16.5 µM |  | 
15 | COc1cc2ncc3c(nc4sccn43)c2cc1OC | 46.4 µM | > 100 µM | 29.3 µM | > 100 µM | 26.8 µM | 60.5 µM | > 100 µM | > 100 µM | 80.4 µM | > 100 µM | 86.1 µM | > 100 µM | 28.7 µM | > 100 µM | 28 µM | > 100 µM |  |  | > 100 µM | > 100 µM
16 | CN=C1OC2(c3ccccc3)C3=C(OC(=NC)N2C)C(=O)OC3(c2ccccc2)N1C (stereo not drawn) |  | > 100 µM |  | > 100 µM |  | > 100 µM |  | > 100 µM |  | > 100 µM |  | > 100 µM |  | > 100 µM |  | > 100 µM |  | > 100 µM |  | 
